Assay results: patent US20240216438A1, “COMPOSITION CONTAINING FUNCTION-REINFORCED STEM CELL FOR PREVENTION OR TREATMENT OF ATOPIC DERMATITIS” (SCM LIFESCIENCE CO., LTD., priority 2021, published 2024)

System: mesenchymal stem cells
Assay: qRT-PCR of IDO and TSG6 expression in mesenchymal stem cells treated with priming candidates
Format: cell-based
Settings: for expression of IDO and TSG6: compared to untreated control group 0, Table 1 groups, 24 hours; for lowest effective concentrations capable of inducing significantly increased expression of both TSG6 and IDO: single substance, 24 hours treatment, qRT-PCR
Method: In a 37° C. and 5% CO2 incubator, mesenchymal stem cells in a storage state (LN2 tank storage) were thawed and cultured, and at this time, the cells were cultured in a medium (DMEM, alpha-MEM) containing 10% FBS or 4% hPL until proliferated to a cell confluence of about 80%. The cultured mesenchymal stem cells were seeded in a 100 mm dish, and treated with candidate substances for reinforcing the functions of the mesenchymal stem cells for 24 hours, and then the concentrations of primary candidate substances for reinforcing the functions were set.
TNF-α and IFN-γIFN-α were selected as the primary candidate substances, and in order to confirm the lowest effective concentration capable of increasing the expression of TNFα-stimulated gene-6 (TSG6) and indoleamine 2,3-dioxygenase (IDO) to confirm the reinforced functions, the stem cells were treated with 5, 10, and 20 ng/ml of TNF-α, 5, 10, and 20 ng/ml of IFN-γ, and 10, 20, and 40 ng/ml of IFN-α, respectively, and changes in expression of TSG6 and IDO were confirmed.
The IDO was known as an immunomodulatory factor that inhibited the proliferation of immune cells such as T cells by converting tryptophan, which was essential for T cell proliferation, into kynurenine, and the TSG6 was known as an anti-inflammatory regulator secreted by mesenchymal stem cells. After culturing the stem cells, total RNA was isolated using TRIzol (Invitrogen), and cDNA was synthesized from total RNA using PrimeScript™ RT reagent Kit with gDNA Eraser (TaKaRa), and qRT-PCR was performed. The results of TSG6 and IDO according to the concentration of each candidate substance were illustrated in FIGS. 1, 2 and 3.
Through Example 1, candidate substances and concentration combinations thereof selected to search for more functionally reinforced compositions based on the candidate substances and the lowest effective concentrations confirmed to induce the reinforced functions of stem cells were set as shown in Table 1. Mesenchymal stem cells were treated with the candidate combinations described in Table 1 below for 24 hours, and the stem cells were cultured as in Example 1, and then total RNA was isolated using TRIzol (Invitrogen). Thereafter, qRT-PCR was performed by synthesizing cDNA from total RNA using the PrimeScript™ RT reagent Kit with gDNA Eraser (TaKaRa).
Vitamins were known to improve the proliferative ability of stem cells and maintain the stemness of stem cells when added during a stem cell culture process. Accordingly, various vitamins were treated in the stem cell culture process, and experiments were performed to confirm whether or not vitamins could achieve anti-inflammatory and immune function reinforcing effects of stem cells. Specifically, the stem cells were treated with various types of vitamins shown in Table 2 according to the method described in Example 1, and the results of confirming changes in expression of IDO and TSG6 according to treatment with each candidate substance were illustrated in FIG. 5.

| Substance | expression of IDO and TSG6 | lowest effective concentrations capable of inducing significantly increased expression of both TSG6 and IDO [ng/mL] |
| --- | --- | --- |
| TNF-α | increased expression | 10 |
| IFN-α | increased expression | 20 |
| IFN-γ: priming candidate substance; Table 1 group 2, 10 ng/ml | increased expression | 10 |
